Our source for the % of inhibition, % of control and pXC50 values is ChEMBL document CHEMBL5465560, “Selectivity Literature for EUbOPEN Chemogenomic Library” (2024).

Assay [1] has as its target Tyrosine-protein kinase Lck (Homo sapiens, UniProt P06239). Particulars: at 3 µM.
For assay [2], the target named is T1, Protein kinase C epsilon type (Homo sapiens) (UniProt Q02156).
T1 sequence (whole entry): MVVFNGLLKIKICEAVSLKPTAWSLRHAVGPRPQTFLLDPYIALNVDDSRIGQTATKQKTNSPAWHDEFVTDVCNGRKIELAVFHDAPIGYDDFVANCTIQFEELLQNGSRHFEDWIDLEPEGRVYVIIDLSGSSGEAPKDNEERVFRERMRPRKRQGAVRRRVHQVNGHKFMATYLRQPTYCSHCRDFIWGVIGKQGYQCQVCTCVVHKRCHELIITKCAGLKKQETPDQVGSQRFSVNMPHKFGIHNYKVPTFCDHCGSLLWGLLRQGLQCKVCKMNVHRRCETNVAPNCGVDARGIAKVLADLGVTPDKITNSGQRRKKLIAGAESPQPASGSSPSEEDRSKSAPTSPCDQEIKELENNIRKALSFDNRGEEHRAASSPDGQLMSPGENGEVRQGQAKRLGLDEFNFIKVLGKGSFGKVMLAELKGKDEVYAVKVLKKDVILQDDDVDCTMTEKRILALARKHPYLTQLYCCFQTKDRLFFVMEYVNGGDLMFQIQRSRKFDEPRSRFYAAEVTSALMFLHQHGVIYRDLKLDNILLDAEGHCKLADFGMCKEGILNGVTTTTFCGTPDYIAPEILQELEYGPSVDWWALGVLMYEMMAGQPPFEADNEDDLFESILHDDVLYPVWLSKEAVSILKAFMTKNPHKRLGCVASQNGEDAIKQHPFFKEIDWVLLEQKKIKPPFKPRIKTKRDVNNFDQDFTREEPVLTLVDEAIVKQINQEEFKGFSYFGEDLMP
Particulars: at 10 µM.

Assay [3] concerns eIF-2-alpha kinase GCN2 (Homo sapiens), Q9P2K8 [S808G]. In words: Selectivity interaction (KinomeScan (DiscoverX)) EUB0001049a EIF2AK4. The conditions noted are these: at 1 µM.
Sequence of eIF-2-alpha kinase GCN2 (Homo sapiens), Q9P2K8 [S808G] (Q9P2K8 whole entry S808G): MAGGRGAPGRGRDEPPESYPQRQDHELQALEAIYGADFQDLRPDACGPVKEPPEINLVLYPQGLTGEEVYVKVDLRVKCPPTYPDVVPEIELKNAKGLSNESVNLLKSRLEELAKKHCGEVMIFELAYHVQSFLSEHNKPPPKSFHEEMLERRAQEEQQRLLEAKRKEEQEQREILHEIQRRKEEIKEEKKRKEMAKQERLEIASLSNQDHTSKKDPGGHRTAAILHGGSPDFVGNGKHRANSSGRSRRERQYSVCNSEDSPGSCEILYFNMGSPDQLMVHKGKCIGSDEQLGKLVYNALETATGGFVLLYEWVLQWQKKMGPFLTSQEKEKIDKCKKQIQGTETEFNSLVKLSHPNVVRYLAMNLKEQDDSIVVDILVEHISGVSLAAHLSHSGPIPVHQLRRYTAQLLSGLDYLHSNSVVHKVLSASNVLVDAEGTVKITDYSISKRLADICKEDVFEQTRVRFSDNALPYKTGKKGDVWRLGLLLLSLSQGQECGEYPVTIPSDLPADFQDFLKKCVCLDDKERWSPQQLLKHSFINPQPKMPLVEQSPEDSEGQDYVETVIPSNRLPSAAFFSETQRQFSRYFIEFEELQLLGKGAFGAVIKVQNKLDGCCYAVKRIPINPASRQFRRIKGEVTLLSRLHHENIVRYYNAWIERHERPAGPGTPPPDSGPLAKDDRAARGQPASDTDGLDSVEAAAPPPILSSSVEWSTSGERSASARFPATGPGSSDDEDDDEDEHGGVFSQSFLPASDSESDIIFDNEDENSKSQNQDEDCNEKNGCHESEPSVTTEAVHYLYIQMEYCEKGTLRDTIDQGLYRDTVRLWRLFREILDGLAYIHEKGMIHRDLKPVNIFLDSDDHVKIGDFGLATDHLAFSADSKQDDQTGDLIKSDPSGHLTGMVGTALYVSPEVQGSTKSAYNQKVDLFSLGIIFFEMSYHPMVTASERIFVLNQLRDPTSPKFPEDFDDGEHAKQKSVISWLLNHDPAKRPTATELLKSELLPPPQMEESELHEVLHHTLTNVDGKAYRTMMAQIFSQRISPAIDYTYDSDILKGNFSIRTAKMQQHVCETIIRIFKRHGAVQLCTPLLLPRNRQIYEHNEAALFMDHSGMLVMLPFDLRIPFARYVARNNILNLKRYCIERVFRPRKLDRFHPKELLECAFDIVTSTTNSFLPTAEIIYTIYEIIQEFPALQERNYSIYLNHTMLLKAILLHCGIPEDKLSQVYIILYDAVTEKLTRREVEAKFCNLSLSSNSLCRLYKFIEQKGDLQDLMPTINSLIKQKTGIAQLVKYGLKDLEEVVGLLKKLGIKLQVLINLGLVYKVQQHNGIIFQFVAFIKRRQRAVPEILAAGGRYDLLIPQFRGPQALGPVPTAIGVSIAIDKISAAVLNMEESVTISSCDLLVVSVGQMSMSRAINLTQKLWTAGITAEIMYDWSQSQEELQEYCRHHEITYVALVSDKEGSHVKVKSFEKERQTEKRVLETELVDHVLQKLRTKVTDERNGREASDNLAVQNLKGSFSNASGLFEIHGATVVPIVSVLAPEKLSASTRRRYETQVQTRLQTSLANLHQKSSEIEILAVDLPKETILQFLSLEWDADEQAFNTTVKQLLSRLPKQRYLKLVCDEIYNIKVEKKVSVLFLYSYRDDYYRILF
Assay [4] deals with Tyrosine-protein kinase Fgr (Homo sapiens) (UniProt P09769). Briefly: Selectivity interaction (KinomeScan (DiscoverX)) EUB0001049a FGR. The conditions noted are these: at 1 µM.
Sequence of Tyrosine-protein kinase Fgr (Homo sapiens) (P09769 2-529 limits assumed): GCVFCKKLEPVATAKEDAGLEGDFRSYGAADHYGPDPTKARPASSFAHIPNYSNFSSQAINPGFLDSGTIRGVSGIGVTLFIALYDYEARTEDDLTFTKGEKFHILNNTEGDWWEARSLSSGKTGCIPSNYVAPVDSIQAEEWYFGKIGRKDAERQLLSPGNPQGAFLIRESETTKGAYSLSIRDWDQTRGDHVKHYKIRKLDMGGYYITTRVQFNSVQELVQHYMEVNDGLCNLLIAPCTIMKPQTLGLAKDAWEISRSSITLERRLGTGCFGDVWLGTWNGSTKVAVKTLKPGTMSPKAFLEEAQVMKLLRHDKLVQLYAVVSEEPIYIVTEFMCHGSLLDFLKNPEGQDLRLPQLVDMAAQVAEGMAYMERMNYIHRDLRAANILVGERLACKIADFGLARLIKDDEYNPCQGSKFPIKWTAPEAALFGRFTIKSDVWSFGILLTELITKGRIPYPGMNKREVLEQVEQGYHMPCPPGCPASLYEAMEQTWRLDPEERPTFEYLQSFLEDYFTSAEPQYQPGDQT
For assay [5], the target named is T2, Dual specificity mitogen-activated protein kinase kinase 7 (Homo sapiens) (UniProt O14733).
T2 sequence (whole entry): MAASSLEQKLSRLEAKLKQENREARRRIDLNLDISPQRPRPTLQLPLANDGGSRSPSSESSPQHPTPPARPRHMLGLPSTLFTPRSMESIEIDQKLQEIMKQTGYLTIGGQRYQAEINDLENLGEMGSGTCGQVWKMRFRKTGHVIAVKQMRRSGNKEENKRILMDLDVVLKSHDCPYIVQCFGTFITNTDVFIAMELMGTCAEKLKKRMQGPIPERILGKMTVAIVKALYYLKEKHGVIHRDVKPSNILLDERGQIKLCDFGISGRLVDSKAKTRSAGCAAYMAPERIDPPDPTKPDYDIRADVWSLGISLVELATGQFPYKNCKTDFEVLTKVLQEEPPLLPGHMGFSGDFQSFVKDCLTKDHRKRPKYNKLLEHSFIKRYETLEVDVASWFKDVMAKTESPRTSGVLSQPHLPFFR
Briefly: Selectivity interaction (KinomeScan (DiscoverX)) EUB0000655a MAP2K7. Particulars: at 10 µM.

Assay [6] concerns the target Phosphatidylinositol 4,5-bisphosphate 3-kinase catalytic subunit gamma isoform (Homo sapiens) (UniProt P48736). Briefly: Selectivity interaction (Panel of kinases, GPCRs, ion channels and transporters (enzymatic assay)) EUB0000223bCl PIK3CG.
The target in assay [7] is Tyrosine-protein kinase ABL2 (Homo sapiens, UniProt P42684). In words: Selectivity interaction (KinomeScan (DiscoverX)) EUB0000666a ABL2. Particulars: at 10 µM.
Sequence of Tyrosine-protein kinase ABL2 (P42684 whole entry): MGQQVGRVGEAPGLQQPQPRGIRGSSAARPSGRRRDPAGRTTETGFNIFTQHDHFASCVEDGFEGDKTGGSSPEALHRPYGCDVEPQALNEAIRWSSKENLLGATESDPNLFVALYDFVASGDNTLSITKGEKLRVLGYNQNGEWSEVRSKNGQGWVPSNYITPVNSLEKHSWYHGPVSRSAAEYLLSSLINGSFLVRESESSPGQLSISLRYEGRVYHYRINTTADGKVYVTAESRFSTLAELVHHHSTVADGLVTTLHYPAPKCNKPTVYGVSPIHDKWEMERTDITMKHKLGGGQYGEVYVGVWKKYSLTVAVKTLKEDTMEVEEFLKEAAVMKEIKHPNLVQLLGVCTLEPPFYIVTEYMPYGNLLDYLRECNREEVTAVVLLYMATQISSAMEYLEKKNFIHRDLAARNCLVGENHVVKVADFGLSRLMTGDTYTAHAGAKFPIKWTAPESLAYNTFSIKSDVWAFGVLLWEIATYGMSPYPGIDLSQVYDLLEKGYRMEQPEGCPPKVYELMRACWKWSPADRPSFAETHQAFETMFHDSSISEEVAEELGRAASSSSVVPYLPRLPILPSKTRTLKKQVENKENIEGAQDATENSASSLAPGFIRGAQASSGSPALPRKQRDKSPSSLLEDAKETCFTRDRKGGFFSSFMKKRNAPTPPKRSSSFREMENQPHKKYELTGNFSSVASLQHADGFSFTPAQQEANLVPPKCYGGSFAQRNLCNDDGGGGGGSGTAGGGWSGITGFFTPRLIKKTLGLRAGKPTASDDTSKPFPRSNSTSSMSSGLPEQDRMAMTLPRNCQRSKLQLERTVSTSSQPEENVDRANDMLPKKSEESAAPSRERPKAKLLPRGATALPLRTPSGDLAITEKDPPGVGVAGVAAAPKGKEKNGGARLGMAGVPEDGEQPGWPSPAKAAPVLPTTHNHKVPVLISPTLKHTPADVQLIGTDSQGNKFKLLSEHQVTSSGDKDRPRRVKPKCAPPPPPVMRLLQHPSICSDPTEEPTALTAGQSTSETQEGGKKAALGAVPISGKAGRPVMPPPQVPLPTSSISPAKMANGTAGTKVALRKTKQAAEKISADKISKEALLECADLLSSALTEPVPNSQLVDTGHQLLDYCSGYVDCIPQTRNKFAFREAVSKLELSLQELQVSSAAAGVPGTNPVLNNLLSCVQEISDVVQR
In assay [8] the target is High affinity nerve growth factor receptor (Homo sapiens, UniProt P04629). In words: Selectivity interaction (KinomeScan (DiscoverX)) EUB0000666a NTRK1. Particulars: at 10 µM.
Sequence of High affinity nerve growth factor receptor (P04629 33-796 limits assumed): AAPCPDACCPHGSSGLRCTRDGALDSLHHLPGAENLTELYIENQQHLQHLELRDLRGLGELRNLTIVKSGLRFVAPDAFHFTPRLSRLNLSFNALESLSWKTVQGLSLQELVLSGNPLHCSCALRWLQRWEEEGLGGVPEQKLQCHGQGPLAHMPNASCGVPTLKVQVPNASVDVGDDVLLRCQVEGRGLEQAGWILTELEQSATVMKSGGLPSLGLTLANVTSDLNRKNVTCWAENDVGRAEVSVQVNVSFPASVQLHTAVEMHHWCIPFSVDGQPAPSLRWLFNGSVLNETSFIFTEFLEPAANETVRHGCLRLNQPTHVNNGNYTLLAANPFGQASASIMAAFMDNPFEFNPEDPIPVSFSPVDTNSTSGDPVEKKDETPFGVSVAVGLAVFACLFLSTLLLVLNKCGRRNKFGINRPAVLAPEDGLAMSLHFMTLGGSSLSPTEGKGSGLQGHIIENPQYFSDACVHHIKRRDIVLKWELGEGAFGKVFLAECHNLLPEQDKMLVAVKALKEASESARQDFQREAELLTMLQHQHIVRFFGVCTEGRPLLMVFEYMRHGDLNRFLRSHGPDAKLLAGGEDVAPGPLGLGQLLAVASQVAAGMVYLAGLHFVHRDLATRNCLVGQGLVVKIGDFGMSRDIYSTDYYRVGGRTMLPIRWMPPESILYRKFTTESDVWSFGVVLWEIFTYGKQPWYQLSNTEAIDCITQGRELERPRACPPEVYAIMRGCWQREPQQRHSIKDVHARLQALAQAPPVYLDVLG
Assay [9] has as its target Tyrosine-protein kinase receptor UFO (Homo sapiens) (UniProt P30530). Briefly: Selectivity interaction (KinomeScan (DiscoverX)) EUB0000607a AXL. Particulars: at 10 µM.
Assay [10] concerns the target Tyrosine-protein kinase Fes/Fps (Homo sapiens) (UniProt P07332). Briefly: Selectivity interaction (KinomeScan (DiscoverX)) EUB0000595a FES. Particulars: at 10 µM.
Assay [11] concerns the target Phosphatidylinositol 4-kinase beta (Homo sapiens, UniProt Q9UBF8). In words: Selectivity interaction (Kinase panel (literature)) EUB0001199aCl PI4KB. The conditions noted are these: at 1 µM.

Sequence of Tyrosine-protein kinase receptor UFO (Homo sapiens) (P30530 whole entry): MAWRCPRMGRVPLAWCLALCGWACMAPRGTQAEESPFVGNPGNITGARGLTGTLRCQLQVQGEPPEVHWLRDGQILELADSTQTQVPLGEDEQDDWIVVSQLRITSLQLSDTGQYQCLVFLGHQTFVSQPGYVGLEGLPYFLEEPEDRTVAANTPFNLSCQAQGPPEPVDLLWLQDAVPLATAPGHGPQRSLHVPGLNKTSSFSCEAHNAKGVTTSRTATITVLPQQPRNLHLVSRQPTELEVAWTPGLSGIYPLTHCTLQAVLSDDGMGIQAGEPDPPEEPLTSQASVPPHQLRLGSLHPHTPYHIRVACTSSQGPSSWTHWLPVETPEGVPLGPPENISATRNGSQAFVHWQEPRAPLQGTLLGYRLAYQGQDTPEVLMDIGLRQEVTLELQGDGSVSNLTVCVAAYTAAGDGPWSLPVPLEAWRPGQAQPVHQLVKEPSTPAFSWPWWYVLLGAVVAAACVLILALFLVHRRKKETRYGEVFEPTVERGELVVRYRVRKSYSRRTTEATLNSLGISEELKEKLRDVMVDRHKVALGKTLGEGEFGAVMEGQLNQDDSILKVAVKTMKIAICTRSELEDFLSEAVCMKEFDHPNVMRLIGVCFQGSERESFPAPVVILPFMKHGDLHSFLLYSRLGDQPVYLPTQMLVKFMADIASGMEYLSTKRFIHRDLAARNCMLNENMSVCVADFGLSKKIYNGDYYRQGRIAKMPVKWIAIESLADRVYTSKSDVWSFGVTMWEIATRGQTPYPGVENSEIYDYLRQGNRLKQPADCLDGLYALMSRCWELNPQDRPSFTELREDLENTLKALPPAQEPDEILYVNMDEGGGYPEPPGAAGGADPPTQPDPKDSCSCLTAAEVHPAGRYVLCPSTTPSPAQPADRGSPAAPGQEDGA

As for `CCc1cc(Nc2nccc(-c3c(-c4ccc(OC)c(C(=O)Nc5c(F)cccc5F)c4)nc4ccccn34)n2)c(OC)cc1N1CCC(N2CCN(S(C)(=O)=O)CC2)CC1`, the % of inhibition in assay [1] turned out to be 47%. In turn, `CCN(CC)CCCCNc1ncc2cc(-c3cc(OC)cc(OC)c3)c(NC(=O)NC(C)(C)C)nc2n1` displayed a % of control in assay [2] of 100%.

In the case of `COc1cc(Nc2nc(C)cc(-c3cnn4nc(OC)ccc34)n2)cc(C(F)(F)F)c1`, the % of control in assay [3] was 100%; in assay [4], 94%. As for `CN(C)CCOc1ccc(-c2nc(-c3ccncc3)c(-c3ccc4c(c3)CC/C4=N\O)[nH]2)cc1`, in assay [5], the % of control turned out to be 94%. For `COc1cc(C(=O)N2CC[C@@H](O)[C@@H](N)C2)cc2nc(-c3cc4ccccc4n3CC3CC3)n(C)c12`, the pXC50 in assay [6] is under 4.5 M. As for `O=C(NOC[C@H](O)CO)c1ccc(F)c(F)c1Nc1ccc(I)cc1F`, the % of control in [7] worked out at 90%; in assay [8], 100%.

In assay [9], `CNC(=O)Nc1ccc(-c2nc(N3CC4CCC(C3)O4)c3cnn(C4CCC5(CC4)OCCO5)c3n2)cc1` came in with a % of control of 88%. With `COCC(=O)NC/C=C/c1ccc2ncnc(Nc3ccc(Oc4ccc(C)nc4)c(C)c3)c2c1` [CP-724714], the % of control in assay [10] amounted to 100%.

Turning to `CN1Cc2nccc(-c3cn(C)nc3-c3ccc(F)cc3)c2C1=O`, the % of inhibition in [11] is -3%.
